Measured values from the supplement of paper PMC10307832.

Tests used:
Test in all cases: relative viability (nuclei count vs DMSO), 5 days (fraction); higher = more cells survive
[1] = compound: C1=CC2=C(C=CC(=C2)C=C3C(=O)NC(=NCC4=CC=CS4)S3)N=C1 [RO-3306] + C[C@]1(O)C[C@@H](c2nc(-c3ccc4ccc(-c5ccccc5)nc4c3)c3c(N)nccn32)C1 [Linsitinib] (partner 1 µM)
Summary of the method: (§1)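 Lung cancer cell lines were seeded in 1536-well plates and dosed by pin tool the next day, with either a single drug or a fixed anchor-drug dose combined with five library-drug doses (not always all listed) spaced in √10 steps. Five days later, one step fixed the cells and stained their nuclei (final 0.05% Triton X-100, 1% formaldehyde, 1 ug/ml Hoechst), and nuclei were counted on 4× images. Relative viability is the nuclei count in treated wells divided by the count in vehicle wells, and each value is the median of duplicate plates.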

[2] = compound: O=S(=O)(c1ccccc1)N(CC(F)(F)F)c1ccc(C(O)(C(F)(F)F)C(F)(F)F)cc1 + Nc1ncn([C@H]2C[C@H](O)[C@@H](CO)O2)c(=O)n1 [Decitabine] (partner 2 µM)
Summary of the method: as §1

[3] = compound: C1=CC2=C(C=CC(=C2)C=C3C(=O)NC(=NCC4=CC=CS4)S3)N=C1 [RO-3306] + N=C(N)NC(=N)NCCc1ccccc1 [Phenformin] (partner 250 µM)
Summary of the method: as §1

[4] = compound: C1=CC2=C(C=CC(=C2)C=C3C(=O)NC(=NCC4=CC=CS4)S3)N=C1 [RO-3306] + Nc1ncn([C@H]2C[C@H](O)[C@@H](CO)O2)c(=O)n1 [Decitabine] (partner 2 µM)
Summary of the method: as §1

Cell Line | relative viability ([1]; first compound 0.01 µM) | relative viability ([1]; first compound 0.03162 µM) | relative viability ([1]; first compound 0.1 µM) | relative viability ([1]; first compound 0.3162 µM) | relative viability ([1]; first compound 1 µM) | relative viability ([2]; first compound 0.8 µM) | relative viability ([2]; first compound 2.53 µM) | relative viability ([2]; first compound 8 µM) | relative viability ([3]; first compound 0.01 µM) | relative viability ([3]; first compound 0.03162 µM) | relative viability ([3]; first compound 0.1 µM) | relative viability ([3]; first compound 0.3162 µM) | relative viability ([3]; first compound 1 µM) | relative viability ([4]; first compound 0.01 µM) | relative viability ([4]; first compound 0.03162 µM) | relative viability ([4]; first compound 0.1 µM) | relative viability ([4]; first compound 0.3162 µM) | relative viability ([4]; first compound 1 µM)
EMC-BAC-2 | 0.901 | 0.678 | 0.797 | 0.851 | 0.773 | 0.973 | 0.908 | 0.974 | 0.516 | 0.401 | 0.536 | 0.497 | 0.508 | 1.1 | 0.915 | 0.963 | 0.954 | 0.972
NCI-H2085 | 0.882 | 0.755 | 0.884 | 0.866 | 0.84 | 0.508 | 0.539 | 0.501 | 0.688 | 0.604 | 0.655 | 0.683 | 0.654 | 0.54 | 0.506 | 0.463 | 0.539 | 0.578
HCC-78 | 0.481 | 0.43 | 0.447 | 0.734 | 0.47 | 0.748 | 0.714 | 0.599 | 0.705 | 0.586 | 0.642 | 0.723 | 0.696 | 0.674 | 0.597 | 0.657 | 0.661 | 0.692
A-427 | 1.14 | 1.1 | 1.07 | 1.06 | 1.21 | 0.526 | 0.509 | 0.551 | 0.339 | 0.241 | 0.312 | 0.295 | 0.243 | 0.615 | 0.545 | 0.543 | 0.572 | 0.568
NCI-H441 | 0.53 | 0.385 | 0.479 | 0.554 | 0.405 | 0.238 | 0.212 | 0.21 | 0.689 | 0.474 | 0.783 | 0.864 | 0.788 | 0.216 | 0.211 | 0.253 | 0.277 | 0.244
NCI-H1993 | – | 0.711 | 0.678 | 0.732 | 0.695 | 0.515 | 0.563 | 0.579 | 0.483 | 0.552 | 0.503 | 0.517 | 0.499 | 0.616 | 0.493 | 0.486 | 0.575 | 0.657
NCI-H1975 | 1.11 | 0.981 | 1.01 | 0.891 | 0.913 | 0.453 | 0.545 | 0.472 | 0.412 | 0.392 | 0.378 | 0.405 | 0.384 | 0.336 | 0.386 | 0.376 | 0.405 | 0.5
